Data reported in PubChem BioAssay (NCI).
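The compound was tested at five concentrations on cells cultured in 96-well plates, with a 48-hour exposure period. TGI denotes the concentration required for complete inhibition of growth.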

Test system: SN12K1 renal
Test: NCI tumour cell line growth inhibition, 48 h

CC[C@@]1(O)C(=O)OCc2c1cc1n(c2=O)Cc2cc3c(N)cccc3nc2-1
TGI: 1.34 µM
